The source of these data is BindingDB's records for doi:10.1124/mol.54.2.322 (Georgetown University, 1998).

What is called Ki is a measure of affinity in units of concentration, obtained from inhibition or displacement. High values mean weaker binding, low ones tighter binding.

The structures appear in SMILES notation.

The target in assay [1] is Neuronal acetylcholine receptor subunit alpha-3 (Rattus norvegicus, UniProt P04757).
The target of assay [2] is Nicotinic acetylcholine receptor (Rattus leucopus, UniProt Q62594).
Sequence of Nicotinic acetylcholine receptor (Q62594 whole entry): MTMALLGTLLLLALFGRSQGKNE

Sequence of Neuronal acetylcholine receptor subunit alpha-3 (P04757 whole entry): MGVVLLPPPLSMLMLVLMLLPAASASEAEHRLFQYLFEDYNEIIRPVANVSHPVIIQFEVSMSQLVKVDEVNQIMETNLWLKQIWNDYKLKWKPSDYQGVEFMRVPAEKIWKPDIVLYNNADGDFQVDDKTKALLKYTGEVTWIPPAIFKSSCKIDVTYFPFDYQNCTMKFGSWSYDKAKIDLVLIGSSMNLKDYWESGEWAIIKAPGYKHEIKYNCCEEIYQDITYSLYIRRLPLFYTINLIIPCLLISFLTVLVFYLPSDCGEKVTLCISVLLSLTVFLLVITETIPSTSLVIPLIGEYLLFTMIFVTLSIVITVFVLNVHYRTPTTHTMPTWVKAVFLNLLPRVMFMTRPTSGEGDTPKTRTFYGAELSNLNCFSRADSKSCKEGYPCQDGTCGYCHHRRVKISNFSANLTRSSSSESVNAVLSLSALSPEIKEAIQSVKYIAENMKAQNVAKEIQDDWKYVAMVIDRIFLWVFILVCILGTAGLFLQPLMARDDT

In assay [1], `O=c1cccc2n1C[C@H]1CNC[C@H]2C1` [(1S,9R)-7,11-diazatricyclo[7.3.1.0~2,7~]trideca-2,4-dien-6-one] had a Ki of 0.195 µM.
Consider `C[N+](C)(C)CCCCCC[N+](C)(C)C` [Hexamethoniumdibromide], for which the Ki in assay [1] and in assay [2] was above 10 µM each time.
`COc1cc2c3cc1Oc1cc(ccc1O)C[C@H]1c4c(cc(OC)c(O)c4Oc4ccc(cc4)C[C@@H]3N(C)CC2)CC[N+]1(C)C` [CAS_57-94-3]: the figures for the Ki in assay [1] and in assay [2] were above 10 µM and 2.24 µM, respectively.
The compound `CO[C@@H]1CC=C2CCN3CCC4=C(CC(=O)OC4)[C@@]23C1` gave a Ki in assay [1] above 10 µM.
The same measure, in the same setting: the same measure for `C[N+](C)(C)CCOC(N)=O` [(2-Hydroxyethyl)trimethyl ammonium chloride carbamate]: 3.84 µM.
